From patent US5166208A, “Fredericamycin A derivatives” (Boston College, priority 1991, dated 1992)
Converted amounts (≈) assume the structure as drawn. Structures can show the parent of a compound that is named as a salt.

Experiments:
p388 murine leukemia = assay: In vivo activity against p388 murine leukemia in an acute mouse model; settings: for AWC (average weight change per mouse): before treatment to day five
Protocol: CDF1 mice of both sexes weighing between 16 and 25 gm. were used, with a 2 gm. weight range and same sex and source used per experiment. BDF1 mice also were used with the same weight, sex and source parameters. Control and test animals were injected interperitoneally with suspension of 1×10^6 p388 murine leukemia cells (0.5 mL dose) on day 0. Groups of 4-6 mice were used for each dosage amount they were treated with 5 doses on day one. A group of ten saline treated control mice was included in each set of experiments. A 30 day protocol was employed with mean survival time in days being determined for each group of mice with the number of survivors at the end of the 30 day period being noted. The mice were weighed before treatment and again on day five. The values listed for average weight change (AWC) is the average weight change per mouse at the specified dose. The change in weight was taken as a measure of drug toxicity. A loss in weight of up to 2 grams is not considered excessive. The results were determined in terms of % T/C which is the ratio of the mean survival time of the treated group to the mean survival time of the saline treated group times 100.

human lung (A549) = assay: In vitro microdilution inhibition, human lung A549; format: cell-based; settings: A549, 72 hours, 50% of cells killed
Description: (§1) As shown in Table III the compounds of the present invention exert an in vitro antitumor effect. The following cells lines were employed: human lung (A549); resistant human lung with low topo II activity (A549-VP); murine melanoma (B16); human colon tumor (HCT116); human colon tumor with elevated p170 levels (HCTVM); human colon tumor with low topo II activity (HCTVP); and another human colon carcinoma cell line (Moser). In the Table, the designation "NT" indicates the compound was not tested against the specified cell line. The cell lines were maintained in continuous culture at 37°, 5% CO2 and high humidity. Cells were harvested in log phase growth and suspended at concentration of 25,000 cells/mL. A […] aliquot was then added to each well (i.e., 3,750 cells per well) of a 96-well flat bottom plate and the cells were allowed to attach over a 24 hour period. After this 24 hour incubation, a 50 μL sample of the specified compound was added to the first (top) well of each column, and the remaining wells of each column serially diluted, 1:4, and allowed to incubate for 72 hours at 37° C., 5% CO2 and high humidity. Following incubation, 50 μL of freshly prepared stain solution was added to each well. After a 3 hour incubation at room temperature, absorbance was read at 450 nm on a microplate reader to determine the compound concentration at which 50% of the cells were killed, such concentration referred to as the "IC50 ".

[1] = test system: human colon tumor (HCT116); assay: In vitro microdilution inhibition, HCT116; format: cell-based; settings: HCT-116, 72 hours, 50% of cells killed
Description: as §1

[2] = test system: human colon tumor with low topo II activity (HCTVP); assay: In vitro microdilution inhibition, HCTVP; format: cell-based; settings: 72 hours, 50% of cells killed
Description: as §1

[3] = test system: human colon tumor with elevated p170 levels (HCTVM); assay: In vitro microdilution inhibition, HCTVM; format: cell-based; settings: 72 hours, 50% of cells killed
Description: as §1

murine melanoma (B16) = assay: In vitro microdilution inhibition, B16; format: cell-based; settings: Mus musculus; B16, 72 hours, 50% of cells killed
Description: as §1

[4] = test system: resistant human lung with low topo II activity (A549-VP); assay: In vitro microdilution inhibition, resistant human lung A549-VP; format: cell-based; settings: A549VP, 72 hours, 50% of cells killed
Description: as §1

[5] = test system: human colon carcinoma cell line (Moser); assay: In vitro microdilution inhibition, Moser; format: cell-based; settings: 72 hours, 50% of cells killed
Description: as §1

[6] = Mus musculus, P388, 720 h, CDF1 (mixed sex), 5 mg/kg, read-out: % T/C (mean survival time treated/control)
[7] = Mus musculus, P388, 720 h, CDF1 (mixed sex), 15 mg/kg, read-out: % T/C (mean survival time treated/control)
[8] = Mus musculus, P388, 720 h, CDF1 (female only), 4 mg/kg, read-out: % T/C (mean survival time treated/control)
[9] = Mus musculus, P388, 720 h, CDF1 (female only), 12 mg/kg, read-out: % T/C (mean survival time treated/control)
[10] = Mus musculus, P388, 720 h, CDF1 (female only), 36 mg/kg, read-out: % T/C (mean survival time treated/control)

Q: What does the source list for CN(C)CCNC1=CC(=O)c2c(O)c3c(c(O)c2C1=O)C(=O)C1(CCc2cccc(O)c21)C3=O (stereo not shown) [Example 24, hydrochloride]?
A: AWC (average weight change per mouse) (p388 murine leukemia; CDF1 (mixed sex), 5 mg/kg): -0.3; AWC (average weight change per mouse) (p388 murine leukemia; CDF1 (mixed sex), 15 mg/kg): -0.3; AWC (average weight change per mouse) (p388 murine leukemia; CDF1 (mixed sex), 45 mg/kg): -0.9; response vs control in vivo at 5 mg/kg (p388 murine leukemia; [6]): 110%; response vs control in vivo at 15 mg/kg (p388 murine leukemia; [7]): 110%; response vs control in vivo at 45 mg/kg (p388 murine leukemia; Mus musculus, P388, 720 h, CDF1 (mixed sex), 45 mg/kg, read-out: % T/C (mean survival time treated/control)): 120%; IC50 (human lung (A549)): 0.5 µg/mL; IC50 [1]: 0.2 µg/mL; IC50 [2]: 1.1 µg/mL; IC50 [3]: 0.7 µg/mL; IC50 (murine melanoma (B16)): 0.4 µg/mL; IC50 [4]: 1.4 µg/mL

Q: Which results are given for CCCCCc1cc2cc3c(c(O)c2c(=O)[nH]1)C1(CC3)C(=O)c2c(O)c3c(c(O)c2C1=O)C(=O)C(NCC)=CC3=O (stereo not shown) [Example 23, 2',6'7'-trihydro-4,9,9'-trihydroxy-3'-(n-pentyl)-6-ethylamino-spiro[2H-benz[f]-indene-2,8'-[8H]cyclopent[g]-isoquinoline]-1,1',3,5,8-pentone]?
A: AWC (average weight change per mouse) (p388 murine leukemia; CDF1 (female only), 4 mg/kg): 1.8; AWC (average weight change per mouse) (p388 murine leukemia; CDF1 (female only), 12 mg/kg): 1.7; AWC (average weight change per mouse) (p388 murine leukemia; CDF1 (female only), 36 mg/kg): 0.7; response vs control in vivo at 4 mg/kg (p388 murine leukemia; [8]): 100%; response vs control in vivo at 12 mg/kg (p388 murine leukemia; [9]): 95%; response vs control in vivo at 36 mg/kg (p388 murine leukemia; [10]): 100%; IC50 (human lung (A549)): 0.14 µg/mL (≈ 0.252 µM); IC50 [1]: 0.28 µg/mL (≈ 0.503 µM); IC50 [2]: 0.1 µg/mL (≈ 0.18 µM); IC50 [3]: 0.22 µg/mL (≈ 0.395 µM); IC50 (murine melanoma (B16)): 0.39 µg/mL (≈ 0.701 µM); IC50 [4]: 0.1 µg/mL (≈ 0.18 µM)

Q: With CCOC(OCC)c1cc2cc3c(c(OCOC)c2c(OC)n1)C1(CC3)C(=O)c2c(O)c3c(c(O)c2C1=O)C(=O)C=CC3=O [Example 9, 6',7'-Dihydro-1-methoxy-9'-(methoxymethoxy-3-(diethoxymethyl)-spiro[2H-benz[f]indene-2,8'-8H]cyclopent[g]isoquinoline]-1,3,5,8-tetrone] as the compound, how does the IC50 (human lung (A549)) read?
A: The IC50 was 4.42 µg/mL (≈ 7.32 µM).

Q: What about the IC50 [1] of the same compound?
A: Its IC50 is 0.71 µg/mL (≈ 1.18 µM).

Q: And the IC50 [2]?
A: Its IC50 is 2.38 µg/mL (≈ 3.94 µM).

Q: And the IC50 (murine melanoma (B16))?
A: Its IC50 is 0.78 µg/mL (≈ 1.29 µM).

Q: What about the IC50 [5] of the same compound?
A: Its IC50 is 4.4 µg/mL (≈ 7.29 µM).

Q: Which results are given for CCCCCc1cc2cc3c(c(O)c2c(=O)[nH]1)C1(CC3)C(=O)c2c(O)c3c(c(O)c2C1=O)C(=O)C(NCCN(C)C)=CC3=O (stereo not shown) [Example 25, hydrochloride]?
A: AWC (average weight change per mouse) (p388 murine leukemia; CDF1 (female only), 4 mg/kg): 0.9; AWC (average weight change per mouse) (p388 murine leukemia; CDF1 (female only), 12 mg/kg): -0.7; AWC (average weight change per mouse) (p388 murine leukemia; CDF1 (female only), 36 mg/kg): -1.6; response vs control in vivo at 4 mg/kg (p388 murine leukemia; [8]): 125%; response vs control in vivo at 12 mg/kg (p388 murine leukemia; [9]): 105%; response vs control in vivo at 36 mg/kg (p388 murine leukemia; [10]): 120%; IC50 (human lung (A549)): 0.14 µg/mL; IC50 [1]: 0.27 µg/mL; IC50 [2]: 0.13 µg/mL; IC50 [3]: 0.22 µg/mL; IC50 (murine melanoma (B16)): 0.14 µg/mL; IC50 [4]: 0.16 µg/mL

Q: Which “AWC (average weight change per mouse)” value (p388 murine leukemia; CDF1 (female only), 3.3 mg/kg) does the source give for COCOc1cccc2c1C1(CC2)C(=O)c2c(O)c3c(c(O)c2C1=O)C(=O)C(NCCO)=CC3=O (stereo not shown) [Example 16, 2',3'-Dihydro-7'-(methoxymethoxy)-1H-indene-1'-spiro-[4,9-dihydroxy-6-(2-hydroxyethylamino)-2H-benz[f]indene-1,3,5,8-tetrone]] here?
A: Its value is -0.1.

Q: What about the “AWC (average weight change per mouse)” value (p388 murine leukemia; CDF1 (female only), 10 mg/kg) of the same compound?
A: The value was -1.1.

Q: And the “AWC (average weight change per mouse)” value (p388 murine leukemia; CDF1 (female only), 30 mg/kg)?
A: The value was -2.6.

Q: And the response vs control in vivo at 3.3 mg/kg (p388 murine leukemia; Mus musculus, P388, 720 h, CDF1 (female only), 3.3 mg/kg, read-out: % T/C (mean survival time treated/control))?
A: Its response vs control in vivo at 3.3 mg/kg is 95%.

Q: What about the response vs control in vivo at 10 mg/kg (p388 murine leukemia; Mus musculus, P388, 720 h, CDF1 (female only), 10 mg/kg, read-out: % T/C (mean survival time treated/control)) of the same compound?
A: The response vs control in vivo at 10 mg/kg was 95%.

Q: And the response vs control in vivo at 30 mg/kg (p388 murine leukemia; Mus musculus, P388, 720 h, CDF1 (female only), 30 mg/kg, read-out: % T/C (mean survival time treated/control))?
A: Its response vs control in vivo at 30 mg/kg is 130%.

Q: What about the IC50 (human lung (A549)) of the same compound?
A: The IC50 was less than 0.03 µg/mL.

Q: What about the IC50 [1] of the same compound?
A: Its IC50 is 0.05 µg/mL (≈ 0.104 µM).

Q: What about the IC50 [2] of the same compound?
A: The IC50 was 0.04 µg/mL (≈ 0.0834 µM).

Q: And the IC50 [3]?
A: Its IC50 is 0.06 µg/mL (≈ 0.125 µM).

Q: And the IC50 (murine melanoma (B16))?
A: The IC50 was 0.03 µg/mL (≈ 0.0626 µM).

Q: And the IC50 [4]?
A: The IC50 was 0.04 µg/mL (≈ 0.0834 µM).

Q: What does the source list for CCNC1=CC(=O)c2c(O)c3c(c(O)c2C1=O)C(=O)C1(CCc2cccc(O)c21)C3=O (stereo not shown) [Example 15, 2',3'-Dihydro-6-ethylamino-7'-hydroxy-1H-indene-1'-spiro-2-[4,9-dihydroxy-2H-benz[f]-indene-1,3,5,8-tetrone]]?
A: AWC (average weight change per mouse) (p388 murine leukemia; CDF1 (mixed sex), 5 mg/kg): -0.1; AWC (average weight change per mouse) (p388 murine leukemia; CDF1 (mixed sex), 15 mg/kg): -0.2; % T/C (mean survival time treated/control) (p388 murine leukemia; CDF1 (mixed sex), 45 mg/kg): Toxic; response vs control in vivo at 5 mg/kg (p388 murine leukemia; [6]): 100%; response vs control in vivo at 15 mg/kg (p388 murine leukemia; [7]): 115%; IC50 (human lung (A549)): < 0.03 µg/mL; IC50 [1]: 0.03 µg/mL (≈ 0.0715 µM); IC50 [2]: 0.05 µg/mL (≈ 0.119 µM); IC50 [3]: 0.03 µg/mL (≈ 0.0715 µM); IC50 (murine melanoma (B16)): 0.03 µg/mL (≈ 0.0715 µM); IC50 [4]: 0.05 µg/mL (≈ 0.119 µM)
